Test results as given in PMC11672637, “7-O-Carboxylic Acid-Substituted 3-O-Alkyl Difluoroquercetin; An Aztreonam-Potentiating Agent Against Carbapenemase-Producing Pseudomonas aeruginosa Through Simultaneous Inhibition of Metallo-β-Lactamase and Efflux Pump” (Antibiotics, 2024).
Read-outs that look alike come from different tables or passages of the source.

Experiments:
[1] = system: HEK293 cells; experiment: Cytotoxicity assay (WST-1); format: cell-based, human; conditions: 24 h, 0.5–128 mg/L tested
Procedure: The HEK293 cells were cultured in Dulbecco’s modified Eagle medium (DMEM) supplemented with 10% fetal bovine serum (FBS) and 1% penicillin-streptomycin solution at 37 °C with 5% CO2. The cells seeded into 96-well plates at 1.5 × 10^4 cells/well were incubated for 24 h. The compound 5 was added to the wells at concentrations ranging from 0.5 to 128 mg/L and incubated for 24 h. Then, for WST-1 assay, EZ-cytox solution (10 μL, DoGenBio, Seoul, Republic of Korea) was added to the wells and incubated for 1 h, and the absorbance was measured at 450 nm (Cytation 5 imaging multimode reader, BioTek Instruments, Inc., Winooski, VT, USA).

[2] = In vivo pharmacokinetic study; design: species or system Sprague–Dawley (SD) rats; conditions: rat; for Vd: iv, 5 mg/kg; for MRT last: read-out: MRT0–last; for MRT inf: read-out: MRT0–∞
Procedure: After administration of compound 5 (5 mg/kg intravenously and 10 mg/kg orally) to specific pathogen-free (SPF) male Sprague–Dawley (SD) rats (Medicilon Colony: 999M-017), samples of serum were taken at eight different time points (0.083, 0.25, 0.5, 1, 2, 4, 8, and 24 h). Analysis of the samples were performed by liquid chromatography with tandem mass spectrometry (LC-MS/MS). A standard set of parameters were calculated using non-compartmental analysis modules in FDA certified pharmacokinetic program Phoenix WinNonlin 7.0 (Pharsight, Mountain View, CA, USA).

[3] = system: human red blood cells; experiment: Hemolytic activity assay; format: cell-based; conditions: human RBCs; 4–128 mg/L tested
Procedure: Washed human red blood cells (hRBCs, Innovative Research, Novi, MI, USA) were diluted 1:100 in HEPES-NaOH buffered saline (HBS) [150 mM NaCl/5 mM HEPES-NaOH (pH 7.4)]. Samples (100 μL) were taken from the serially diluted (4 to 128 mg/L) compound 5 and mixed with 250 μL of hRBCs in 1.5 mL microcentrifuge tube. After incubation at 37 °C for 30 min, the tubes were centrifuged at 3000 rpm for 5 min. The supernatant (50 μL), thus obtained, was transferred to transparent, flat-bottom 96-well plates and absorption was measured at 405 nm (Cytation 5 imaging multimode reader, BioTek Instruments, Inc., Winooski, VT, USA). In some cases, 1% TritonX-100 or HBS buffer was used instead of the compound 5 as positive and negative controls, respectively. The percentage of hemolysis was calculated as follows: % Hemolysis = (ODtest − ODHBS)/[…] × 100%.

[4] = target: T1, NDM-1 (Klebsiella pneumoniae, UniProt C7C422); experiment: β-lactamase inhibition assay (imipenem); format: biochemical; conditions: imipenem substrate; read-out: BLi, IC50 NDM-1
T1 construct: purchased RayBiotech, Inc. 230-00554
Procedure: (§1) Recombinant AmpC, OXA-48 (residues 23–265) and VIM-2 (residues 27–266) were prepared from Escherichia coli based on previously established protocols. KPC-2 and NDM-1 are commercially available from LifeSpan Biosciences, Inc., Seattle, WA, USA (LS-G26598) and RayBiotech, Inc., Peachtree Corners, GA, USA (230-00554), respectively. For β-lactamase inhibition assay, in a 96-well plate, 70–0.1 μM (in PBS) of the synthesized compounds (1~14) (100 μL) were mixed with diluted β-lactamase stock (2% DMSO in 200 μL). In a separate 96-well plate, a substrate of AmpC, KPC-2, OXA-48, and VIM-2 (nitrocefin) and NDM-1 (imipenem) were added into each well (final concentrations of 70 μM for nitrocefin and 100 μM for imipenem). After incubation at 37 °C for 20 min, the mixture of the synthesized compounds (1~14) and β-lactamase in one plate was added to the substrate in the other plate. Enzymatic hydrolysis of the substrate was then monitored by a Cytation 5 imaging multimode reader (BioTek Instruments Inc., Winooski, VT, USA) at 486 nm and 300 nm for nitrocefin and imipenem, respectively, for 15 min. The rates of hydrolysis in the presence of the inhibitors were determined when the reaction rate plateaued. Comparison of the enzymatic hydrolysis rates in the presence and the absence of inhibitors (100%) provided the percentage of enzyme inhibition at each concentration of the synthesized compounds. The IC50 values were obtained after non-linear regression (sigmoidal dose-responses) by GraphPad Prism 5 (GraphPad Software, Boston, MA, USA).

[5] = target: T2, OXA-48 (Klebsiella pneumoniae, UniProt Q6XEC0); experiment: β-lactamase inhibition assay (nitrocefin); format: biochemical; conditions: nitrocefin substrate; read-out: BLi, IC50 OXA-48
T2 construct: OXA-48 (residues 23–265); made in house; host or cells: Escherichia coli
Procedure: as §1

[6] = target: T3, VIM-2 (Escherichia coli, UniProt Q5U7L7); experiment: β-lactamase inhibition assay (nitrocefin); format: biochemical; conditions: nitrocefin substrate; read-out: BLi, IC50 VIM-2
T3 construct: VIM-2 (residues 27–266); made in house; host or cells: Escherichia coli
Procedure: as §1

[7] = target: AmpC; experiment: β-lactamase inhibition assay (nitrocefin); format: biochemical; conditions: nitrocefin substrate; read-out: BLi, IC50 AmpC
Procedure: as §1

[8] = target: T4, KPC-2 (Klebsiella pneumoniae, UniProt Q9F663); experiment: β-lactamase inhibition assay (nitrocefin); format: biochemical; conditions: nitrocefin substrate; read-out: BLi, IC50 KPC-2
T4 construct: purchased LifeSpan Biosciences, Inc. LS-G26598
Procedure: as §1

[9] = male, Sprague-Dawley, serum, Intravenous (5 mg/kg)
[10] = male, Sprague-Dawley, serum, Oral (10 mg/kg)

T2 sequence (Q6XEC0 23-265 limits assumed): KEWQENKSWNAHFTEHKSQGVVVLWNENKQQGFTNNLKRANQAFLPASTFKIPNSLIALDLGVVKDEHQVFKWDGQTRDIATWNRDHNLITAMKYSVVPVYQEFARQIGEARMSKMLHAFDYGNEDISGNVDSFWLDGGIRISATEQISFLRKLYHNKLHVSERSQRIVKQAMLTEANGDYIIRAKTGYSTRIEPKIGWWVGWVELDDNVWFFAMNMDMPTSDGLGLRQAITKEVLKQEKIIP
T4 sequence (Q9F663 25-293, looked up, species assumed): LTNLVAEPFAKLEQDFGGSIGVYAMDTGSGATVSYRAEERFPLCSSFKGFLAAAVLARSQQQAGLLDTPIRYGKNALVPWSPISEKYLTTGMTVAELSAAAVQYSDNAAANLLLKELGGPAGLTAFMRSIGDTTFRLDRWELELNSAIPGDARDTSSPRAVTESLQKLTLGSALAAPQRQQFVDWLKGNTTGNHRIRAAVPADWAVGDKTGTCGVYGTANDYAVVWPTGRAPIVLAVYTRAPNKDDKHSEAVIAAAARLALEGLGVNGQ
T1 sequence (C7C422 29-270, looked up, species assumed): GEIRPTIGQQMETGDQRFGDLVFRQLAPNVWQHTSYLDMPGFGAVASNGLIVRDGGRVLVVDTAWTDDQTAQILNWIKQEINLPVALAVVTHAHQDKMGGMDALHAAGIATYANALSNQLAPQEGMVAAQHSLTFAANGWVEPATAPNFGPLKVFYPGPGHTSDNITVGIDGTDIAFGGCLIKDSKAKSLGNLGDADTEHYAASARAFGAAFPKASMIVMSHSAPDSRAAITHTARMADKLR

CC(C)(C)CCOc1c(-c2ccc(F)c(F)c2)oc2cc(OCC(=O)O)cc(O)c2c1=O [Compound 5, 2-((2-(3,4-Difluorophenyl)-3-(3,3-dimethylbutoxy)-5-hydroxy-4-oxo-4H-chromen-7-yl)oxy)acetic Acid]
Concentration at which cell viability was affected [1]: greater than 64 mg/L
Vd ([2]; male, Sprague-Dawley, serum, Intravenous (5 mg/kg), read-out: Vss): 0.65 ± 0.09 L/kg
Vd ([2]; male, Sprague-Dawley, serum, Intravenous (5 mg/kg), read-out: Vz): 1.84 ± 0.76 L/kg
Vd ([2]; male, Sprague-Dawley, serum, intravenous 5 mg/kg, read-out: Vss): 0.65 L/kg
AUC(0-inf) [2, 9]: 3610 ± 590 ng·h/mL
AUC(0-t) [2, 9]: 3600 ± 590 ng·h/mL
C0 [2, 9]: 11100 ± 2390 ng/mL
half-life [2, 9]: 0.92 ± 0.42 h
clearance ([2]; male, Sprague-Dawley, serum, Intravenous (5 mg/kg), read-out: Cl (systemic clearance)): 23.6 mL/min/kg
Cmax ([2]; male, Sprague-Dawley, serum, Intravenous (5 mg/kg), read-out: Cmax): 7510 ng/mL
MRT last [2, 9]: 0.45 ± 0.02 h
MRT inf [2, 9]: 0.46 ± 0.02 h
AUC(0-inf) [2, 10]: 1280 ± 540 ng·h/mL
AUC(0-t) [2, 10]: 1250 ± 570 ng·h/mL
Tmax [2, 10]: 2 h
half-life [2, 10]: 1.28 ± 0.53 h
Cmax ([2]; male, Sprague-Dawley, serum, Oral (10 mg/kg), read-out: Cmax): 290 ± 140 ng/mL
bioavailability ([2]; male, Sprague-Dawley, serum, Oral (10 mg/kg), read-out: F (bioavailability)): 17.3 ± 7.88%
MRT last [2, 10]: 2.87 ± 0.25 h
MRT inf [2, 10]: 3.13 ± 0.35 h
Cmax ([2]; Intravenous (5 mg/kg)): 7510 ± 1340 ng/mL
Concentration up to which no noticeable toxic effect (hemolysis) [3]: ≥ 128000 ng/mL
IC50 [4]: 6.1 ± 0.4 µM
IC50 [5]: > 100 µM
IC50 [6]: > 100 µM
IC50 [7]: > 50 µM
IC50 [8]: > 50 µM
